{
  "source": "patent US11865125B2",
  "about": "“APKC inhibitors and methods of treating a neurodegenerative disease or disorder” (UNIVERSITY OF SOUTH FLORIDA, priority 2016, dated 2024)",
  "key": {"[1]": {"tested_on": "Akt", "test": "Akt activity in human hepatocytes", "format": "cell-based", "settings": "normal human hepatocytes, 100 μM metformin, preliminary studies", "excerpt": "(§1) Relative values. Mean±SEM (N=4-8). Asterisks: *, P<0.05; **, P<0.01; ***, P<0.001."}, "[2]": {"tested_on": "β-secretase (BACE1)", "test": "β-secretase activity (BACE1) in LA1-5s neuroblastoma cells", "format": "cell-based, human", "settings": "LA1-5s cells", "method": "(§2) Relative bar values in panel a are mean±SEM of 6 determinations. Asterisks: *, P<0.05; **, P<0.01; ***, P<0.001 (ANOVA). Values in panel b are means of 2-4 determinations.\n(§3) Shown here are Mean±SEM (N=4) values relative to the mean initial basal or insulin-stimulated level of indicated immunoreactive protein/peptide. Asterisks: *, P<0.05; **, P<0.01; ***, P<0.001 (ANOVA).\n(§4) β-Secretase Activity (BACE1; beta-site APP-cleaving enzyme-1). β-Secretase was measured was measured using a kit from Thermo-Fisher."}, "[3]": {"tested_on": "SREBP-1c, FAS, ACC, PEPCK, G6Pase, and PGC-1α", "test": "expression of lipogenic and gluconeogenic enzymes in human hepatocytes", "format": "cell-based", "excerpt": "Relative values are Mean±SEM (N=4-8). Asterisks: *, P<0.05; **, P<0.01; ***, P<0.001. ANOVA."}, "[4]": {"tested_on": "phospho-thr-231-tau", "test": "phospho-thr-231-tau levels in LA1-5s neuroblastoma cells", "format": "cell-based, human", "settings": "LA1-5s cells, metformin alone", "method": "as §3\n(§5) Western Analyses. As described, Western analyses were conducted with rabbit antisera or mouse monoclonal antibodies (mMab), using: anti-aPKC (Santa Cruz Biotechnologies, Santa Cruz, CA); anti-phospho-threonine-560/555-PKC-ζ/λ/ι (Invitrogen, Carlsbad, CA); anti-p-serine-256-FoxO1 and anti-FoxO1 (Abnova, Walnut, CA); anti-Akt (mMab), anti-phospho-serine-473-Akt, anti-phospho-serine-9-GSK3P anti-GSK313, anti-phospho-serine-253-FoxO3a, anti-FoxO3a, anti-phospho-serine-256-FoxO1, anti-phospho-serine-193-FoxO4; anti-FoxO1, anti-phospho-serine-2448-mTOR, anti-mTOR, anti-β-amyloid (anti-5-10 kDa-Aβ1-40/42) and anti-amyloid precursor protein (anti-120 kDa-APP) (Cell Signaling Technologies, Danvers, MA); and anti-phospho-serine-202-tau, anti-phospho-threonine-231-tau (Gene Tex, Irvine, CA). Samples from experimental groups were compared on the same blots, and routinely checked with loading controls. Note that: insulin-sensitive 70 kDa aPKC is largely PKC-ζ in mouse brain and orthologous PKC-ι (98% aa homology) in monkey and other primate brains; brain PKC-ζ exists largely as a 50 kDa moiety that, lacking a regulatory domain, is constitutively-active and unresponsive to insulin."}, "[5]": {"tested_on": "aPKC", "test": "aPKC activity in LA1-5s neuroblastoma cells", "format": "cell-based, human"}, "[6]": {"tested_on": "aPKC", "test": "aPKC activity in human hepatocytes", "format": "cell-based", "settings": "normal human hepatocytes, 100 μM metformin, preliminary studies", "excerpt": "as §1"}, "[7]": {"tested_on": "Aβ1-40/42", "test": "Aβ1-40/42 levels in LA1-5s neuroblastoma cells", "format": "cell-based, human", "settings": "for effect on levels of Aβ1-40/42: LA1-5s cells", "method": "as §2, §3, §5"}, "[8]": {"biological_target": "T1, 70 kDa PKC-λ/ι (Mus musculus, UniProt Q62074)", "T1 construct": "insulin-sensitive 70 kDa PKC-λ/ι in brains of Het-MλKO mice; from tissue; host or cells: mouse brain homogenate", "T1 sequence (Q62074 1-595)": "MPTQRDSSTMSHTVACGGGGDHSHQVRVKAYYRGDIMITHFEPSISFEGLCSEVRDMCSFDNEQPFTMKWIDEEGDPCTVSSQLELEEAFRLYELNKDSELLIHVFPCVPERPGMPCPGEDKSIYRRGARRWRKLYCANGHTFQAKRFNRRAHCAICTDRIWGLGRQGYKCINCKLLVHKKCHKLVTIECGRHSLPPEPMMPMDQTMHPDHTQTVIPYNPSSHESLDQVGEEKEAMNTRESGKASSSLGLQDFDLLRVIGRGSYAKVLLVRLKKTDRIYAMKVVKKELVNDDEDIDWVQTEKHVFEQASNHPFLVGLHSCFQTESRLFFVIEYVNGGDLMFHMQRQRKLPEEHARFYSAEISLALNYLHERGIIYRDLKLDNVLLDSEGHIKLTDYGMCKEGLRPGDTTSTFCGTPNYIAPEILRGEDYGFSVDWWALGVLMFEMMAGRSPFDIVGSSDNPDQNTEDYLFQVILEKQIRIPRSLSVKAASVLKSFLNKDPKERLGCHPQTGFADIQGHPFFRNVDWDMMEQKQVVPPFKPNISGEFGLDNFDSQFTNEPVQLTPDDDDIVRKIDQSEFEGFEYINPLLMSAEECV", "test": "brain aPKC (PKC-λ/ι) phosphorylation/activity in mice", "format": "in vivo", "excerpt": "(§6) Mouse Studies. Brain samples were obtained from normal and insulin-resistant mice and monkeys used previously, and includes mice originally used in studies of insulin signaling and resistance in liver: (a) 4-6 month old C57Bl/6 mice used in studies of high-fat-feeding [USF Vivarium] [6]; 4-6 month-old male C57Bl/6 ob/ob and lean ob+ mice (Jackson Labs, Bar Harbor, Maine); and (c) 10-12 month-old C57Bl/6 Het-MλKO mice [USF Vivarium] [8]. […] Where indicated normal mice were given a single SC injection of saline or saline containing 1.5 mg/kg ICAPP to follow time-related alterations in brain signaling factors. Where indicated, mice were treated intraperitoneally (IP) with insulin (1 U/kg body weight) or vehicle 15-min before euthanization by administration of Xylazine/Ketamine, followed by whole body perfusion with phosphate-buffered saline and rapid removal of brain and other tissues.\n(§7) Tissue Preparations. As described, mouse brains were hemisected sagittally, and one-half was frozen in liquid N2, stored at −80° C., and samples thereof were homogenized in buffer containing 0.25M sucrose, 20 mM Tris/HCl (pH, 7.5), 2 mmol/l EGTA, 2 mM EDTA, 1 mM phenlysulfonoylfluoride (PMSF), 20 μg/ml leupeptin, 10 μg/ml aprotinin, 2 mM Na4P2O7, 2 mM Na3VO4, 2 mM NaF, and 1 μM microcystin, and then supplemented with 1% TritonX-100, 0.6% Nonidet and 150 mM NaCl.\nas §5\n(§8) Where indicated, mice were randomly treated with insulin (1 unit/kg/bw i.p.) 15 min before being euthanized by administration of xylazine/ketamine, followed by whole-body perfusion with PBS and rapid removal of brain and other tissues."}, "[9]": {"settings": "cited from earlier work"}, "[10]": {"tested_on": "Akt substrates, GSK3β and mTOR", "test": "phosphorylation of Akt substrates in LA1-5s neuroblastoma cells", "format": "cell-based, human", "settings": "200 nM insulin", "method": "as §2, §5"}, "[11]": {"tested_on": "Akt", "test": "Akt activity in LA1-5s neuroblastoma cells", "format": "cell-based, human", "settings": "200 nM insulin", "method": "as §2, §3, §5"}, "[12]": {"tested_on": "β-secretase (BACE1)", "test": "brain β-secretase activity (BACE1) in mice", "format": "in vivo, mouse", "settings": "normal WT mice, insulin 1 U/kg i.p. 15 min", "excerpt": "Mouse Studies. Brain samples were obtained from normal and insulin-resistant mice and monkeys used previously, and includes mice originally used in studies of insulin signaling and resistance in liver: (a) 4-6 month old C57Bl/6 mice used in studies of high-fat-feeding [USF Vivarium] [6]; 4-6 month-old male C57Bl/6 ob/ob and lean ob+ mice (Jackson Labs, Bar Harbor, Maine); and (c) 10-12 month-old C57Bl/6 Het-MλKO mice [USF Vivarium] [8]. Males and females were comparably present in experimental groups, and sex didn't appreciably alter combined findings. Hepatic alterations, clinical characteristics and ameliorating effects of liver-selective aPKC inhibitors were reported previously. […] Where indicated, Het-MλKO were injected subcutaneously (SC) once daily for 8 days with saline or 1H-imidazole-4-carboxamide,5-amino]-(2,3-dihydroxy-4-[(phosphono-oxy)methyl]cyclopentane-[1R-(1a,2b,3b,4a)] (ICAPP) 0.4 mg/kg body weight) in saline, to inhibit hepatic aPKC, and thus diminish aPKC-dependent expression of hepatic gluconeogenic and lipogenic enzymes, and thereby reduce serum insulin levels to near-normal. Where indicated normal mice were given a single SC injection of saline or saline containing 1.5 mg/kg ICAPP to follow time-related alterations in brain signaling factors. Where indicated, mice were treated intraperitoneally (IP) with insulin (1 U/kg body weight) or vehicle 15-min before euthanization by administration of Xylazine/Ketamine, followed by whole body perfusion with phosphate-buffered saline and rapid removal of brain and other tissues.\nas §7, §4"}, "[13]": {"tested_on": "Aβ1-40/42", "test": "brain Aβ1-40/42 peptide levels in mice", "format": "in vivo, mouse", "settings": "control mice, insulin 1 unit/kg i.p. 15 min", "excerpt": "as §6, §7, §5, §8"}, "[14]": {"tested_on": "Akt", "test": "brain Akt phosphorylation/activity in mice", "format": "in vivo, mouse", "settings": "control mice, insulin 1 unit/kg i.p. 15 min", "excerpt": "as §6, §7, §5, §8"}, "[15]": {"settings": "neuroblastoma cells, 200 nM insulin, 1 hour"}},
  "note": "“Also recorded” adds a separate entry of the source.",
  "data": [
    {"molecule": "CN(C)C(=N)N=C(N)N", "note": "[metformin]", "values": [
      {"measurement": "Akt activation and action", "setting": "[1]", "value": "impairments in Akt activation and action"},
      {"measurement": "effect on β-secretase activity", "setting": "[2]; metformin alone", "value": "increase"},
      {"measurement": "SREBP-1c activity and expression of lipogenic enzymes", "setting": "[3]; hepatocytes, metformin", "value": "increases in activity of SREBP-1c and SREBP-1c-dependent expression of lipogenic enzymes"},
      {"measurement": "gluconeogenic enzyme expression", "setting": "[3]; normal human hepatocytes, 100 μM metformin, preliminary studies", "value": "increases in gluconeogenic enzyme expression"},
      {"measurement": "effect on levels of phospho-thr-231-tau", "setting": "[4]", "value": "increase"},
      {"measurement": "effect on aPKC activity", "setting": "[5]; LA1-5s cells, metformin alone", "value": "increase"},
      {"measurement": "aPKC activity", "setting": "[6]", "value": "increases in aPKC activity"},
      {"measurement": "effect on levels of Aβ1-40/42", "setting": "[7]; metformin alone", "value": "increase"}
    ]},
    {"molecule": "NC(=O)c1ncn([C@@H]2C[C@H](CO)[C@@H](O)[C@H]2O)c1N", "note": "[ICAP, reference compound]", "values": [
      {"measurement": "acute effects of insulin on CNS aPKC activity", "setting": "[8]; normal mice, doses employed in the initial studies", "value": "unable to diminish acute effects of insulin on CNS aPKC activity"},
      {"measurement": "hyperinsulinemia, with regard to hyperactivation of CNS Akt and aPKC", "setting": "[9]; HFF and ob/ob mice, doses effective on hepatic aPKC, initial studies", "value": "did not improve hyperinsulinemia sufficiently"}
    ]},
    {"molecule": "insulin", "values": [
      {"measurement": "brain aPKC activity", "setting": "[8]; control mice, insulin 1 unit/kg i.p. 15 min", "value": "provoked increases"},
      {"measurement": "effect on phosphorylation of Akt substrates, GSK3β and mTOR", "setting": "[10]; LA1-5s cells, 24 hours", "value": "elicited increases"},
      {"measurement": "effect on Akt-dependent GSK3β and mTOR phosphorylation", "setting": "[10]; neuroblastoma cells, 1 hour", "value": "can increase"},
      {"measurement": "effect on activity of β-secretase", "setting": "[2]; 200 nM insulin, 24 hours", "value": "elicited increases"},
      {"measurement": "effect on Akt activity", "setting": "[11]; LA1-5s cells, 24 hours", "value": "elicited increases"},
      {"measurement": "effect on Akt activity", "setting": "[11]; neuroblastoma cells, 1 hour", "value": "can increase"},
      {"measurement": "effect on aPKC activity", "setting": "[5]; LA1-5s cells, 200 nM insulin, 24 hours", "value": "elicited increases"},
      {"measurement": "effect on aPKC activity", "setting": "[5]; [15]", "value": "can increase"},
      {"measurement": "brain β-secretase activity (BACE1)", "setting": "[12]", "value": "accompanied by increases"},
      {"measurement": "effect on levels of Aβ1-40/42", "setting": "[7]; 200 nM insulin, 24 hours", "value": "elicited increases"},
      {"measurement": "effect on Aβ1-40/42 peptide levels", "setting": "[7]; [15]", "value": "can increase"},
      {"measurement": "brain Aβ1-40/42 peptide levels", "setting": "[13]", "value": "increased"},
      {"measurement": "brain Akt activity", "setting": "[14]", "value": "provoked increases"}
    ]},
    {"molecule": "O=C(O)CC([S-])C(=O)O.[Au+]", "note": "(stereo not drawn) [ATM, aurothiomalate]", "values": [
      {"measurement": "serum insulin levels / hyperinsulinemia", "setting": "[9]; Het-MλKO mice, reported previously", "value": "fully/sufficiently improved; also recorded: reduced serum insulin levels to normal"}
    ]}
  ]
}
